Assay results: ChEMBL document CHEMBL5113530, “Butyrylation Meets Adipogenesis-Probed by a p300-Catalyzed Acylation-Specific Small Molecule Inhibitor: Implication in Anti-obesity Therapy” (J Med Chem, 2022)
The source made the active and inactive calls. The rule behind the calls is not given here.

Tests used:
[1] = tested on: 3T3-L1; test: Cytotoxicity against in mouse 3T3-L1 cells assessed as effect on cellular oxidoreductase activity at 25 uM incubated for 6 days by MTT assay; type: toxicity, cell-based; details: 3t3-l1, 144 h, time 6 day
[2] = Toxicity in male Sprague-Dawley rat assessed as average food intake at 250 mg/kg, po administered as single dose measured on day 14 (Rvb =21.24 g/day); type: organism-based; details: in vivo, 336 h, time 14 day
[3] = Toxicity in female Sprague-Dawley rat assessed as average food intake at 1000 mg/kg, po administered as single dose measured on day 1 (Rvb =17.84 g/day); type: organism-based; details: in vivo, 24 h, time 1 day
[4] = Toxicity in female Sprague-Dawley rat assessed as effect on body weight at 250 mg/kg, po administered as single dose measured on day 1 (Rvb =152.21 +/- 6.58 g); type: organism-based; details: in vivo, 24 h, time 1 day
[5] = Toxicity in male Sprague-Dawley rat assessed as average water intake measured per day at 500 mg/kg, po administered as single dose measured on day 14 (Rvb =34 ml/day); type: organism-based; details: in vivo, 336 h, time 14 day
[6] = Toxicity in female Sprague-Dawley rat assessed as effect on body weight at 1000 mg/kg, po administered as single dose measured on day 14 (Rvb =171.5 +/- 6.65 g); type: organism-based; details: in vivo, 336 h, time 14 day
[7] = Mutagenicity in Salmonella typhimurium TA100 assessed as number of revertants measured per plate at 10 to 1000 incubated for 48 hrs in absence of rat liver S9 fraction by plate incorporation assay; type: toxicity; details: salmonella enterica subsp. enterica serovar typhimurium, s9, 48 h, dose 10-1000 µg
[8] = tested on: 3T3-L1; test: Anti-adipogenic activity against mouse 3T3-L1 cells assessed as downregulation of ACSS2 mRNA expression at 25 uM measured after 7 days by qRT-PCR analysis; type: functional, cell-based; details: time 7.0 day
[9] = Toxicity in male Sprague-Dawley rat assessed as effect on body weight at 500 mg/kg, po administered as single dose measured on day 1 (reference value: 174.75 +/- 7.61 g); type: organism-based; details: in vivo, 24 h, time 1 day
[10] = Mutagenicity in Salmonella typhimurium TA97a assessed as number of revertants measured per plate at 10 to 1000 incubated for 48 hrs in presence of rat liver S9 fraction by plate incorporation assay; type: toxicity; details: salmonella enterica subsp. enterica serovar typhimurium, s9, 48 h, dose 10-1000 µg
[11] = Toxicity in male Sprague-Dawley rat assessed as average water intake measured per day at 1000 mg/kg, po administered as single dose measured on day 14 (Rvb =34 ml/day); type: organism-based; details: in vivo, 336 h, time 14 day
[12] = Toxicity in male Sprague-Dawley rat assessed as average food intake at 500 mg/kg, po administered as single dose measured on day 7 (Rvb =20.24 g/day); type: organism-based; details: in vivo, 168 h, time 7 day
[13] = Toxicity in male Sprague-Dawley rat assessed as average food intake at 250 mg/kg, po administered as single dose measured on day 1 (Rvb =20.38 g/day); type: organism-based; details: in vivo, 24 h, time 1 day
[14] = Toxicity in female Sprague-Dawley rat assessed as average water intake measured per day at 250 mg/kg, po administered as single dose measured on day 1 (Rvb =25 ml/day); type: organism-based; details: in vivo, 24 h, time 1 day
[15] = Toxicity in female Sprague-Dawley rat assessed as average food intake at 250 mg/kg, po administered as single dose measured on day 1 (Rvb =17.84 g/day); type: organism-based; details: in vivo, 24 h, time 1 day
[16] = tested on: 3T3-L1; test: Anti-adipogenic activity against mouse 3T3-L1 cells assessed as downregulation of FABP4 mRNA expression at 25 uM measured after 7 days by qRT-PCR analysis; type: functional, cell-based; details: time 7.0 day
[17] = Toxicity in female Sprague-Dawley rat assessed as average water intake measured per day at 500 mg/kg, po administered as single dose measured on day 14 (Rvb =26 ml/day); type: organism-based; details: in vivo, 336 h, time 14 day
[18] = Toxicity in female Sprague-Dawley rat assessed as average food intake at 1000 mg/kg, po administered as single dose measured on day 14 (Rvb =15.95 g/day); type: organism-based; details: in vivo, 336 h, time 14 day
[19] = tested on: Mus musculus; test: Anti-obesity activity in db/db mouse assessed as inhibition of Adipoq-gene expression at 50 mg/kg, po qd administered for 30 days by qRT-PCR analysis; type: functional, organism-based; details: time 30.0 day
[20] = Toxicity in female Sprague-Dawley rat assessed as effect on body weight at 500 mg/kg, po administered as single dose measured on day 14 (Rvb =171.5 +/- 6.65 g); type: organism-based; details: in vivo, 336 h, time 14 day
[21] = Toxicity in female Sprague-Dawley rat assessed as effect on body weight at 500 mg/kg, po administered as single dose measured on day 7 (Rvb =169.81 +/- 6.57 g); type: organism-based; details: in vivo, 168 h, time 7 day
[22] = Toxicity in male Sprague-Dawley rat assessed as effect on body weight at 250 mg/kg, po administered as single dose measured on day 14 (Rvb =231.13 +/- 18.38 g); type: organism-based; details: in vivo, 336 h, time 14 day
[23] = tested on: Mus musculus; test: Anti-obesity activity in C57BL6/J mouse model of high fat diet-induced obesity assessed as reduction in H4K5 butyrylation level in epididymal fat pad at 50 mg/kg by Immunoblotting analysis; type: functional, organism-based
[24] = Toxicity in female Sprague-Dawley rat assessed as average food intake at 1000 mg/kg, po administered as single dose measured on day 7 (Rvb =15.65 g/day); type: organism-based; details: in vivo, 168 h, time 7 day
[25] = tested on: 3T3-L1; test: Anti-adipogenic activity against mouse 3T3-L1 cells assessed as upregulation of TEAD4 mRNA expression at 25 uM measured after 7 days by qRT-PCR analysis; type: functional, cell-based; details: time 7.0 day
[26] = tested on: 3T3-L1; test: Inhibition of H3K5 butyrylation in mouse 3T3-L1 cells by Immunoblotting analysis; type: functional, cell-based
[27] = tested on: 3T3-L1; test: Inhibition of H3K23 butyrylation in mouse 3T3-L1 cells by Immunoblotting analysis; type: functional, cell-based
[28] = tested on: 3T3-L1; test: Anti-adipogenic activity against mouse 3T3-L1 cells assessed as downregulation of CEBPA mRNA expression at 25 uM measured after 7 days by qRT-PCR analysis; type: functional, cell-based; details: time 7.0 day
[29] = Toxicity in male Sprague-Dawley rat assessed as average food intake at 1000 mg/kg, po administered as single dose measured on day 1 (Rvb =20.38 g/day); type: organism-based; details: in vivo, 24 h, time 1 day
[30] = Toxicity in female Sprague-Dawley rat assessed as average food intake at 500 mg/kg, po administered as single dose measured on day 7 (Rvb =15.65 g/day); type: organism-based; details: in vivo, 168 h, time 7 day
[31] = tested on: Mus musculus; test: Anti-obesity activity in C57BL6/J mouse model of high fat diet-induced obesity assessed as inhibition of H4K5 butyrylation level in liver at 50 mg/kg by DAPI staining based immunofluorescence microscopic analysis; type: functional, organism-based
[32] = Toxicity in male Sprague-Dawley rat assessed as effect on body weight at 500 mg/kg, po administered as single dose measured on day 14 (Rvb =231.13 +/- 18.38 g); type: organism-based; details: in vivo, 336 h, time 14 day
[33] = tested on: Mus musculus; test: Anti-obesity activity in C57BL6/J mouse model of high fat diet-induced obesity assessed as reduction in adipocyte hypertrophy at 50 mg/kg by hematoxylin and eosin staining based assay; type: functional, organism-based
[34] = Toxicity in female Sprague-Dawley rat assessed as average water intake measured per day at 250 mg/kg, po administered as single dose measured on day 7 (Rvb =21 ml/day); type: organism-based; details: in vivo, 168 h, time 7 day

## COc1ccc(C(=O)C2=C3OC(C)(C)[C@@H](CC=C(C)C)C[C@@]34C[C@@H](CC=C(C)C)C(C)(C)[C@](CC=C(C)C)(C2=O)C4=O)cc1OC
[1]
  Activity: Non-Toxic
[2]
  Activity: 22.62 g/day
[3]
  Activity: 18.17 g/day
[4]
  Activity: 151.99 g
[5]
  Activity: 40 mL
[6]
  Activity: 179.52 g
[7]
  Activity: Non-Toxic
[8]
  Activity: Active
[9]
  Activity: 176.3 g
[10]
  Activity: Non-Toxic
[11]
  Activity: 38 mL
[12]
  Activity: 21.14 g/day
[13]
  Activity: 20.03 g/day
[14]
  Activity: 26 mL
[15]
  Activity: 20 g/day
[16]
  Activity: Active
[17]
  Activity: 26 mL
[18]
  Activity: 16.97 g/day
[19]
  Activity: Active
[20]
  Activity: 175.8 g
[21]
  Activity: 176.55 g
[22]
  Activity: 244.21 g
[23]
  Activity: Active
[24]
  Activity: 17.82 g/day
[25]
  Activity: Active
[26]
  inhibition: Active
[27]
  inhibition: Active
[28]
  Activity: Active
[29]
  Activity: 20.76 g/day
[30]
  Activity: 18.13 g/day
[31]
  Activity: Active
[32]
  Activity: 243.14 g
[33]
  Activity: Active
[34]
  Activity: 21 mL
